Calls of active or inactive are those of the source. The calls are words filed in the database; no cut-off is given here.
Key:
[1] = molecular target: Sphingosine 1-phosphate receptor 3 (Homo sapiens, UniProt Q99500); experiment: Agonist activity at human S1P3 receptor assessed as Ca2+ mobilization by GeneBLAzer assay; assay type: functional
[2] = molecular target: Sphingosine 1-phosphate receptor 1 (Homo sapiens, UniProt P21453); experiment: Agonist activity at S1P1 receptor by Tango assay; assay type: functional
Sphingosine 1-phosphate receptor 1, sequence (P21453 whole entry): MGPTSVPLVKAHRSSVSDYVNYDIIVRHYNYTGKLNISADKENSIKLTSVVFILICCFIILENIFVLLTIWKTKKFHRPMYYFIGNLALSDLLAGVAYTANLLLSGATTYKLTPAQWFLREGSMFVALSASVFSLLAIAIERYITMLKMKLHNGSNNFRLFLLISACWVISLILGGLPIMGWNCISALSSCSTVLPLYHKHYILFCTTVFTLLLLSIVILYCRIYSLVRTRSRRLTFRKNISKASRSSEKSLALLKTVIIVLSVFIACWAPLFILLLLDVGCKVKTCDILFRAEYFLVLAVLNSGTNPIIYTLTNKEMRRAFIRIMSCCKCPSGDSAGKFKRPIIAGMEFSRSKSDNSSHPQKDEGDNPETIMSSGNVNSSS

[3] = Ratio of drug level in brain to blood in mouse at 2 mg/kg, ip at 1 hr; assay type: ADME, organism-based; parameters: dose 2 mg/kg, route intraperitoneal; conditions: brain and blood
[4] = tested on: Mus musculus; experiment: Immunosuppressive activity in naive B6 mouse assessed as peripheral lymphocytes at 1 mg/kg, po at 4 hrs relative to control; assay type: functional
[5] = Ratio of drug level in brain to blood in mouse at 2 mg/kg, ip at 4 hrs; assay type: ADME, organism-based; parameters: dose 2 mg/kg, route intraperitoneal; conditions: brain and blood
[6] = Clearance in C57BL/6 mouse blood at 1 mg/kg, iv and 2 mg/kg, po; assay type: ADME, organism-based
[7] = tested on: Mus musculus; experiment: Immunosuppressive activity in naive B6 mouse assessed as peripheral lymphocytes at 1 mg/kg, po at 24 hrs relative to control; assay type: functional
[8] = Cmax in C57BL/6 mouse blood at 1 mg/kg, iv and 2 mg/kg, po; assay type: ADME, organism-based
[9] = Terminal half life in C57BL/6 mouse blood at 1 mg/kg, iv and 2 mg/kg, po; assay type: ADME, organism-based; conditions: read-out: beta t1/2 (converted)
[10] = Ratio of drug level in brain to blood in mouse at 2 mg/kg, ip at 2 hrs; assay type: ADME, organism-based; parameters: dose 2 mg/kg, route intraperitoneal; conditions: brain and blood
[11] = Oral bioavailability in C57BL/6 mouse blood at 2 mg/kg; assay type: ADME, organism-based
[12] = Volume of distribution at steady state in C57BL/6 mouse blood at 1 mg/kg, iv and 2 mg/kg, po; assay type: ADME, organism-based; conditions: read-out: Vdss
[13] = species on record: Mus musculus; experiment: Immunosuppressive activity in C57BL/6 mouse autoimmune encephalomyelitis model assessed as efficacy relative to fingolimod; assay type: functional, organism-based

Sphingosine 1-phosphate receptor 3, sequence (Q99500 whole entry): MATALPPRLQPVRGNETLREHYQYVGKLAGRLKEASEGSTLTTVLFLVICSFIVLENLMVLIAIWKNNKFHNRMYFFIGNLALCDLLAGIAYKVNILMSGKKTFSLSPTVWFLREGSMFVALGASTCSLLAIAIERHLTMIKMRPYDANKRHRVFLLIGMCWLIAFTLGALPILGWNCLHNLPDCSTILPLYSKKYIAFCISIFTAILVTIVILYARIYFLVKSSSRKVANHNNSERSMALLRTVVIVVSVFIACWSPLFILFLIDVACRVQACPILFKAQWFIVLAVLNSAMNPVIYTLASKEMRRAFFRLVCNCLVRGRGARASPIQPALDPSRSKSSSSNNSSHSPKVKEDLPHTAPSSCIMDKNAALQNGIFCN

| EC50 [1] | EC50 [2] | SMILES | other results |
| --- | --- | --- | --- |
| > 10000 nM | 2.51 nM | CC(C)Oc1ccc(-c2nc(-c3ccc4c(ccn4CCC(=O)O)c3)no2)cc1Cl | – |
| > 10000 nM | 5.01 nM | CC(C)Oc1ccc(-c2nc(-c3cccc4c(C(=O)O)c[nH]c34)no2)cc1Cl | – |
| > 10000 nM | 0.0794 nM | CC(C)Oc1ccc(-c2nc(-c3cccc4c(CCc5nnn[nH]5)c[nH]c34)no2)cc1Cl | – |
| > 10000 nM | < 0.01 nM | CC(C)Oc1ccc(-c2nc(-c3cc(F)cc4c(CCC(=O)O)cn(C)c34)no2)cc1Cl | – |
| > 10000 nM | 100 nM | COc1cc(-c2nc(-c3cccc4c(CCC(=O)O)c[nH]c34)no2)cnc1OC(C)C | – |
| > 10000 nM | 0.0316 nM | CC(C)Oc1ccc(-c2nc(-c3cccc4c(CCC(N)=O)c[nH]c34)no2)cc1Cl | – |
| > 10000 nM | 3160 nM | O=C(O)CCc1c[nH]c2c(-c3noc(-c4ccc(Cl)cc4)n3)cccc12 | – |
| > 10000 nM | 0.398 nM | CC(C)Oc1ncc(-c2nc(-c3cccc4c(CCC(=O)O)c[nH]c34)no2)cc1Cl | – |
| > 10000 nM | 0.251 nM | CC(C)Oc1ccc(-c2nc(-c3ccc4c(CCC(=O)O)c[nH]c4c3)no2)cc1Cl | – |
| > 10000 nM | 20 nM | CC(C)Oc1ccc(-c2nc(-c3cccc4c(CCC(=O)O)cn(C(C)C)c34)no2)cc1Cl | – |
| > 10000 nM | < 0.01 nM | CC(C)Oc1ccc(-c2nc(-c3ccc(F)c4c(CCC(=O)O)cn(C)c34)no2)cc1Cl | Kp at 1 h [3]: 0.35; Activity [4]: 21%; Kp at 4 h [5]: 0.48; clearance [6]: 3.22 mL/min/kg; Activity [7]: 114%; Cmax [8]: 1700 ng/mL; half-life [9]: 3.83 h; Kp at 2 h [10]: 0.48; bioavailability [11]: 100%; Vd [12]: 0.84 L/kg; Efficacy [13]: Active |
| > 10000 nM | 0.398 nM | CC(C)Oc1ccc(-c2nc(-c3cccc4c(CCCC(=O)O)c[nH]c34)no2)cc1Cl | – |
| > 10000 nM | 25.1 nM | CC(C)Oc1ccc(-c2nc(-c3c(F)ccc4c(CCC(=O)O)cn(C)c34)no2)cc1Cl | – |
| > 10000 nM | 39.8 nM | CC(C)Oc1ccc(-c2nc(-c3cccc4c(CC(=O)O)c[nH]c34)no2)cc1Cl | – |
| > 10000 nM | > 10000 nM | O=C(O)CCc1c[nH]c2c(-c3noc(C4CCOCC4)n3)cccc12 | – |
| > 10000 nM | 0.316 nM | CCn1cc(CCC(=O)O)c2cccc(-c3noc(-c4ccc(OC(C)C)c(Cl)c4)n3)c21 | – |

| EC50 [1] | EC50 [2] | SMILES | other results |
| --- | --- | --- | --- |
| > 10000 nM | 6.31 nM | COc1ccc(-c2noc(-c3ccc(OC(C)C)c(Cl)c3)n2)c2c1c(CCC(=O)O)cn2C | – |
| > 10000 nM | 0.0501 nM | CC(C)Oc1ccc(-c2nc(-c3cccc4c(CCCCC(=O)O)c[nH]c34)no2)cc1Cl | – |
| > 10000 nM | 398 nM | CC(C)Oc1ccc(-c2nc(-c3ccc4ccn(CCC(=O)O)c4c3)no2)cc1Cl | – |
| > 10000 nM | 0.0398 nM | CNC(=O)CCc1c[nH]c2c(-c3noc(-c4ccc(OC(C)C)c(Cl)c4)n3)cccc12 | – |
| > 10000 nM | 0.00631 nM | CC(C)Oc1ccc(-c2nc(-c3cccc4c(CCC(=O)O)cn(C)c34)no2)cc1Cl | – |
| > 10000 nM | 398 nM | CC1(C)Oc2ccc(-c3nc(-c4cccc5c(CCC(=O)O)c[nH]c45)no3)cc2O1 | – |
| > 10000 nM | 1.58 nM | Cc1cc(-c2nc(-c3cccc4c(CCC(=O)O)c[nH]c34)no2)cnc1OC(C)C | – |
| > 10000 nM | 0.251 nM | CC(C)Oc1ncc(-c2nc(-c3cccc4c(CCC(=O)O)c[nH]c34)no2)cc1C(F)(F)F | – |
| > 10000 nM | 0.0126 nM | CC(C)Oc1ccc(-c2nc(-c3cccc4c(CCC(=O)O)c[nH]c34)no2)cc1Cl | – |
| > 10000 nM | 200 nM | CCCn1cc(CCC(=O)O)c2cccc(-c3noc(-c4ccc(OC(C)C)c(Cl)c4)n3)c21 | – |
| > 10000 nM | 3.16 nM | CCOc1ccc(-c2nc(-c3cccc4c(CCC(=O)O)c[nH]c34)no2)cc1OCC | – |
| > 10000 nM | 0.2 nM | CC(C)Oc1ccc(-c2nc(-c3ccc4[nH]c(CCC(=O)O)cc4c3)no2)cc1Cl | – |
| > 10000 nM | > 3160 nM | O=C(O)CCc1c[nH]c2c(-c3noc(-c4ccc5c(c4)OCCO5)n3)cccc12 | – |
| > 10000 nM | > 10000 nM | O=C(O)CCc1c[nH]c2c(-c3noc(C4CCCCC4)n3)cccc12 | – |
| > 10000 nM | 1260 nM | COc1ccc(-c2nc(-c3cccc4c(CCC(=O)O)c[nH]c34)no2)cc1OC | – |

Reference: ChEMBL document CHEMBL2016540, “Indole-propionic acid derivatives as potent, S1P3-sparing and EAE efficacious sphingosine-1-phosphate 1 (S1P1) receptor agonists” (Bioorg Med Chem Lett, 2012)
